Data reported in ChEMBL document CHEMBL4190370, “Emerging New Targets for the Treatment of Resistant Fungal Infections” (J Med Chem, 2018).
Values after ≈ are worked out from the molar mass of the structure shown.

Legend:
[1] = system: Kluyveromyces marxianus; test: Antifungal activity against Candida kefyr; format: functional
[2] = Inhibition of Aspergillus fumigatus AGM1
[3] = system: Candida albicans; test: Antifungal activity against Candida albicans; format: functional
[4] = system: Cryptococcus neoformans; test: Antifungal activity against Cryptococcus neoformans H99 after 48 hrs; format: functional; settings: var grubii H99 
[5] = system: Cryptococcus neoformans; test: Antifungal activity against Cryptococcus neoformans H99 serotype A after 72 hrs by microdilution method; format: functional, Cryptococcus neoformans var. grubii H99
[6] = system: Candida albicans; test: Antifungal activity against Candida albicans after 24 hrs; format: functional
[7] = system: Cryptococcus neoformans; test: Antifungal activity against Cryptococcus neoformans after 24 hrs; format: functional
[8] = system: Aspergillus fumigatus; test: Antifungal activity against Aspergillus fumigatus after 24 hrs; format: functional
[9] = system: Saccharomyces cerevisiae; test: Inhibition of Saccharomyces cerevisiae AHAS
[10] = system: Candida albicans; test: Antifungal activity against fluconazole-susceptable Candida albicans isolate 1 after 24 hrs by microdilution method; format: functional; settings: isolate 1, 24 h
[11] = system: Candida albicans; test: Antifungal activity against fluconazole-susceptable Candida albicans isolate 2 after 24 hrs by microdilution method; format: functional; settings: isolate 2, 24 h
[12] = system: Candida albicans; test: Antifungal activity against fluconazole-susceptable Candida albicans isolate 3 after 24 hrs by microdilution method; format: functional; settings: isolate 3, 24 h
[13] = system: Candida albicans; test: Antifungal activity against fluconazole-susceptable Candida albicans isolate 4 after 24 hrs by microdilution method; format: functional; settings: isolate 4, 24 h
[14] = system: Candida albicans; test: Antifungal activity against fluconazole-susceptable Candida albicans isolate 5 after 24 hrs by microdilution method; format: functional; settings: isolate 5, 24 h
[15] = system: Candida albicans; test: Antifungal activity against fluconazole-susceptable Candida albicans isolate 6 after 24 hrs by microdilution method; format: functional; settings: isolate 6, 24 h
[16] = system: Candida albicans; test: Antifungal activity against fluconazole-susceptable Candida albicans isolate 7 after 24 hrs by microdilution method; format: functional; settings: isolate 7, 24 h
[17] = system: Candida albicans; test: Antifungal activity against fluconazole-susceptable Candida albicans isolate 8 after 24 hrs by microdilution method; format: functional; settings: isolate 8, 24 h
[18] = system: Candida albicans; test: Antifungal activity against fluconazole-susceptable Candida albicans isolate 9 after 24 hrs by microdilution method; format: functional; settings: isolate 9, 24 h
[19] = system: Candida albicans; test: Antifungal activity against fluconazole-susceptable Candida albicans isolate 10 after 24 hrs by microdilution method; format: functional; settings: isolate 10, 24 h
[20] = system: Candida albicans; test: Antifungal activity against fluconazole-susceptable Candida albicans isolate 11 after 24 hrs by microdilution method; format: functional; settings: isolate 11, 24 h
[21] = system: Candida albicans; test: Antifungal activity against fluconazole-susceptable Candida albicans isolate 12 after 24 hrs by microdilution method; format: functional; settings: isolate 12, 24 h
[22] = system: Candida albicans; test: Antifungal activity against fluconazole-susceptable Candida albicans isolate 13 after 24 hrs by microdilution method; format: functional; settings: isolate 13, 24 h
[23] = system: Candida albicans; test: Antifungal activity against fluconazole-susceptable Candida albicans isolate 14 after 24 hrs by microdilution method; format: functional; settings: isolate 14, 24 h
[24] = system: Candida albicans; test: Antifungal activity against fluconazole-susceptable Candida albicans isolate 15 after 24 hrs by microdilution method; format: functional; settings: isolate 15, 24 h
[25] = system: Candida albicans; test: Antifungal activity against fluconazole-resistant Candida albicans isolate 16 after 24 hrs by microdilution method; format: functional; settings: isolate 16, 24 h
[26] = system: Candida albicans; test: Antifungal activity against fluconazole-resistant Candida albicans isolate 17 after 24 hrs by microdilution method; format: functional; settings: isolate 17, 24 h
[27] = system: Candida albicans; test: Inhibition of Cch1 in Candida albicans isolate 10 assessed as potentiation of fluconazole-induced antifungal activity by measuring fractional inhibitory concentration index after 24 hrs by checkerboard assay
[28] = system: Candida albicans; test: Inhibition of Cch1 in Candida albicans isolate 16 assessed as potentiation of fluconazole-induced antifungal activity by measuring fractional inhibitory concentration index after 24 hrs by checkerboard assay
[29] = system: Aspergillus fumigatus; test: Antifungal activity against Aspergillus fumigatus IFM 40808 after 48 hrs by broth-microdilution method; format: functional; settings: IFM 40808, 48 h
[30] = Inhibition of Aspergillus fumigatus KU80UpyrG- NMT using [3H]-MCoA and CAP5.5 as substrate after 20 mins by SPA assay

In the case of N[C@@H](CC(=O)CO)C(=O)O, the MIC [1] is reported as 6.25 to 12.5 µg/mL (≈ 42.5 to 85 µM).

With Cc1nc(/N=N/c2ccc(C(=O)O)cc2)c(COP(=O)(O)O)c(C=O)c1O the IC50 [2] was 7.1 µM.

For N=C(N)NCCC[C@H](N)C(=O)N[C@@H](/C=C/CP(=O)(O)O)C(=O)O, the MIC [3] was 0.35 µg/mL (≈ 0.996 µM).

For Cc1nn(-c2ccccc2)c2nc(C(F)(F)F)cc(O)c12, the MIC80 [4] was 32 to 64 µg/mL (≈ 109 to 218 µM).

With NC(Cc1cc(O)c(O)cc1O)C(=O)O (stereo not given) the IC50 [2] was 58 µM.

C=CC[C@@H]1/C=C(\C)C[C@H](C)C[C@H](OC)[C@H]2O[C@@](O)(C(=O)C(=O)N3CCCC[C@H]3C(=O)O[C@H](/C(C)=C/[C@@H]3CC[C@@H](O)[C@H](OC)C3)[C@H](C)[C@@H](O)CC1=O)[C@H](C)C[C@@H]2OC [TACROLIMUS ANHYDROUS] showed an MIC [5] of 0.01 µg/mL (≈ 0.0124 µM).

CC[C@@H](C)[C@@H](O)[C@H](C)C(=O)[C@H](C)/C=C(\C)C[C@H](C)C1OC(=O)[C@H]1C (stereo not given in full) showed an MIC [3] of 64 µg/mL (≈ 189 µM).

With CCc1cccc(C)c1NS(=O)(=O)c1nc2nc(C)cc(C3CC3)n2n1 the MIC50 [6] was 1 µg/mL (≈ 2.69 µM), the MIC50 [7] was 4 µg/mL (≈ 10.8 µM) and the MIC50 [8] was 4 µg/mL (≈ 10.8 µM). It also gave an IC30 [9] of 4.2 µM.

With C/C=C/C[C@@H](C)[C@@H](O)[C@H]1C(=O)N[C@@H](CC)C(=O)N(C)CC(=O)N(C)[C@@H](CC(C)C)C(=O)N[C@@H](C(C)C)C(=O)N(C)[C@@H](CC(C)C)C(=O)N[C@@H](C)C(=O)N[C@H](C)C(=O)N(C)[C@@H](CC(C)C)C(=O)N(C)[C@@H](CC(C)C)C(=O)N(C)[C@@H](C(C)C)C(=O)N1C [CYCLOSPORINE] the MIC [5] was 0.39 µg/mL (≈ 0.324 µM).

Work on COc1ccc2cc1Oc1ccc(cc1)C[C@@H]1c3cc(c(OC)cc3CCN1C)Oc1c(OC)c(OC)cc3c1[C@H](C2)N(C)CC3 [ISOTETRANDRINE] yielded an MIC80 [10] of 64 µg/mL (≈ 103 µM), an MIC80 [11] of 64 µg/mL (≈ 103 µM) and an MIC80 [12] of 64 µg/mL (≈ 103 µM). The MIC80 [13] was 64 µg/mL (≈ 103 µM), the MIC80 [14] was 64 µg/mL (≈ 103 µM) and the MIC80 [15] was 64 µg/mL (≈ 103 µM). It also gave an MIC80 [16] of 64 µg/mL (≈ 103 µM), an MIC80 [17] of 64 µg/mL (≈ 103 µM) and an MIC80 [18] of 64 µg/mL (≈ 103 µM). It also gave an MIC80 [19] of 64 µg/mL (≈ 103 µM), an MIC80 [20] of 64 µg/mL (≈ 103 µM) and an MIC80 [21] of 64 µg/mL (≈ 103 µM). For the same molecule, the MIC80 [22] was 64 µg/mL (≈ 103 µM), the MIC80 [23] was 64 µg/mL (≈ 103 µM) and the MIC80 [24] was 64 µg/mL (≈ 103 µM). The MIC80 [25] was 64 µg/mL (≈ 103 µM) and the MIC80 [26] was 64 µg/mL (≈ 103 µM).

For COC(=O)C1=C(C)NC(C)=C(C(=O)OC2CCCN(Cc3ccccc3)C2)C1c1cccc([N+](=O)[O-])c1 (stereo not given), the fractional inhibitory concentration index (FICI) [27] was 0.017 to 0.035 and the fractional inhibitory concentration index (FICI) [28] was 0.017 to 0.035.

In the case of COC(=O)C1=C(C)NC(C)=C(C(=O)OC)C1c1ccccc1[N+](=O)[O-], the fractional inhibitory concentration index (FICI) [27] is reported as 0.017 to 0.035 and the fractional inhibitory concentration index (FICI) [28] is reported as 0.017 to 0.035.

Work on Cc1c(NS(=O)(=O)c2c(Cl)cc(-c3ccnc(N4CCNCC4)c3)cc2Cl)c(CC(C)C)nn1C [ZELENIRSTAT] yielded an MIC [29] of 925 µM (≈ 497 µg/mL) and an IC50 [30] of 0.012 µM.
